Laboratory results: patent publication US10285983B2, “3-(1H-pyrrolo[2,3-B]pyridin-2-yl)-1H-pyrazolo[3,4-B] pyridines and therapeutic uses thereof” (Samumed, LLC, priority 2015, dated 2019)
pEC50: −log10 of the molar value.

Tests used:
[1] = tested on: primary human mesenchymal stem cells (hMSCs); assay: Chondrogenesis induction in hMSCs (nodule count, Rhodamine B/Nile Red); format: cell-based; conditions: 144 h, 6 days; for Emax: relative to TGF-β3 (10 ng/mL) positive control, read-out: Max. Activity as % TGF-β3 activity
Method: Representative compounds were screened using primary human mesenchymal stem cells (hMSCs) to determine their ability to induce chondrogenesis (process by which cartilage is developed).
Primary human mesenchymal stem cells (hMSCs) were purchased from Lonza (Walkersville, Md.) and expanded in Mesenchymal Stem Cell Growth Media (Lonza). Cells between passage 3 and 6 were used for the experiments.
Each compound was dissolved in DMSO as a 10 mM stock and used to prepare compound source plates. Serial dilution (1:3, 6-point dose-response curves from 2700 nM to 10 nM) and compound transfer was performed using the ECHO 550 (Labcyte, Sunnyvale, Calif.) into 96-well clear bottom assay plates (Greiner Bio-One) with appropriate DMSO backfill for a final DMSO concentration of 0.03%. hMSCs were plated at 20,000 cells/well in 250 μL/well Incomplete Chondrogenic Induction Medium (Lonza; DMEM, dexamethasone, ascorbate, insulin-transferrin-selenium [ITS supplement], gentamycin-amphotericin [GA-1000], sodium pyruvate, proline and L-glutamine). TGF-β3 (10 ng/mL) was used as a positive control for differentiation while negative control wells were treated with 75 nL DMSO for normalization and calculating EC50 values. Cells were incubated at 37° C. and 5% CO2 for 6 days. To image chondrogenic nodules, the cells were fixed using 4% formaldehyde (Electron Microscopy Sciences), and stained with 2 μg/mL Rhodamine B (Sigma-Aldrich) and 20 μM Nile Red (Sigma-Aldrich) [Johnson K., et. al, A Stem Cell-Based Approach to Cartilage Repair, Science, (2012), 336(6082), 717-721]. The nodules imaged (4 images per well at 4× magnification) by excitation at 531 nm and emission at 625 nm and quantified using the CellInsight CX5 (Thermo Scientific). Number of nodules in each well was normalized to the average of 3 DMSO treated wells on the same plate using Excel (Microsoft Inc.). The normalized averages (fold change over DMSO) of 3 replicate wells for each compound concentration were calculated. Due to solubility limitations of some of the compounds, curve fitting was incomplete leading to inaccurate EC50 determinations.
Using TGF-β3 as a positive control, the concentration of representative compounds required to induce 50% levels of chondrogenesis is reported. In addition, the maximum activity of each compound and the respective dose that each compound reached maximum chondrogenesis activity is reported.

[2] = tested on: IL-6 (THP-1 human monocyte cell line); assay: IL-6 inhibition in LPS-stimulated THP-1 cells (HTRF); format: cell-based; conditions: LPS 500 ng/mL; for pEC50: 22 hours, IL6 HTRF; for inhibition at 10 µM: given for EC50 >10 μM, read-out: percent inhibition at 10 μM
Method: Human monocyte cell line (THP-1 cells; Catalog # TIB-202, ATCC, Manassas, Va.) were cultured in Roswell Park Memorial Institute (RPMI) 1640 Medium (Catalog #21870-100, Buffalo, N.Y.) with 1% L-glutamine, 1% HEPES, 1% Sodium Pyruvate, 2% Sodium Bicarbonate supplemented with 100 units/mL penicillin, 50 μg/mL streptomycin, 2-mercaptoethanol (0.05 mM) [basal medium] and 10% fetal bovine serum (Catalog #16140089, Life Technologies, Carlsbad, Calif.) at 37° C. and 5% CO2.
THP-1 cells were cultured in basal media with 1% FBS for 24 hours before the start of the assay. Each compound was dissolved in DMSO as a 10 mM stock and used to prepare compound source plates. Serial dilution (1:3, 10-point dose-response curves starting from […]) and compound transfer was performed using the ECHO 550 (Labcyte, Sunnyvale, Calif.) into 384-well white low volume assay plates (Greiner Bio-One) with appropriate DMSO backfill for a final DMSO concentration of 0.1%. THP-1 cells were plated at 5000 cells/well in the 384-well plates and incubated at 37° C. for 2 h. 500 ng/mL of LPS was added after 2 hours and cells were incubated for another 22 hours at 37° C. Plates were spun in a centrifuge for 1 minute at 10,000 rpm and a mixture of anti-IL6 XL665, and anti-IL6 Cryptate diluted in reconstitution buffer (Cisbio Inc.) was added to each well. Following incubation for 3 hrs at room temperature, Homogeneous Time-Resolved Fluorescence (HTRF) was measured using the Envision (Perkin Elmer) at 665 nm and […]. The ratio of fluorescence at 665 nm to 620 nm was used as a readout for IL6 quantification. All samples were processed in duplicate. Readings were normalized to DMSO treated cells and normalized activities were utilized for EC50 calculations using the dose-response log (inhibitor) vs. response—variable slope (four parameters) nonlinear regression feature available in GraphPad Prism 5.0 (or Dotmatics). For EC50 of >10 μM, the percent inhibition at 10 μM is provided.

| pEC50 [2] | EC50 ([1]; concentration required to induce 50% levels of chondrogenesis vs TGF-β3, read-out: Conc (nM) of 50% TGF-β3 activity) [nM] | SMILES | Emax [1] [%] | inhibition at 10 µM [2] [%] |
| --- | --- | --- | --- | --- |
| < 5.00 | – | CN(C)c1cncc(-c2cnc3[nH]nc(-c4cc5c(-c6ccccc6F)ccnc5[nH]4)c3c2)c1 [Compound 63, 5-(3-(4-(2-Fluorophenyl)-1H-pyrrolo[2,3-b]pyridin-2-yl)-1H-pyrazolo[3,4-b]pyridin-5-yl)-N,N-dimethylpyridin-3-amine] | 35 | 11.3 |
| < 5.00 | 10 | CC(C)Nc1cncc(-c2cnc3[nH]nc(-c4cc5c(-c6ccccc6F)ccnc5[nH]4)c3c2)c1 [Compound 68, 5-(3-(4-(2-Fluorophenyl)-1H-pyrrolo[2,3-b]pyridin-2-yl)-1H-pyrazolo[3,4-b]pyridin-5-yl)-N-isopropylpyridin-3-amine] | 82 | 42.9 |
| < 5.00 | – | Oc1cncc(-c2cnc3[nH]nc(-c4cc5c(-c6ccc(F)cc6)ccnc5[nH]4)c3c2)c1 [Compound 533, 5-(3-(4-(4-Fluorophenyl)-1H-pyrrolo[2,3-b]pyridin-2-yl)-1H-pyrazolo[3,4-b]pyridin-5-yl)pyridin-3-ol] | – | 20.7 |
| < 5.00 | – | CC(C)C(=O)Nc1cncc(-c2cnc3[nH]nc(-c4cc5c(-c6cccnc6)ccnc5[nH]4)c3c2)c1 [Compound 93, N-(5-(3-(4-(Pyridin-3-yl)-1H-pyrrolo[2,3-b]pyridin-2-yl)-1H-pyrazolo[3,4-b]pyridin-5-yl)pyridin-3-yl)isobutyramide] | – | 26.2 |
| < 5.00 | – | Fc1cccc(-c2ccnc3[nH]c(-c4n[nH]c5ncc(-c6cccnc6)cc45)cc23)c1 [Compound 4, 3-(4-(3-Fluorophenyl)-1H-pyrrolo[2,3-b]pyridin-2-yl)-5-(pyridin-3-yl)-1H-pyrazolo[3,4-b]pyridine] | – | 22.6 |
| < 5.00 | – | CN(C)CCOc1cncc(-c2cnc3[nH]nc(-c4cc5c(-c6cccnc6)ccnc5[nH]4)c3c2)c1 [Compound 563, N,N-dimethyl-2-((5-(3-(4-(pyridin-3-yl)-1H-pyrrolo[2,3-b]pyridin-2-yl)-1H-pyrazolo[3,4-b]pyridin-5-yl)pyridin-3-yl)oxy)ethan-1-amine] | – | 18.7 |
| 7.49 | – | CN(C)c1cncc(-c2cnc3[nH]nc(-c4cc5c(-c6cccs6)ccnc5[nH]4)c3c2)c1 [Compound 343, N,N-Dimethyl-5-(3-(4-(thiophen-2-yl)-1H-pyrrolo[2,3-b]pyridin-2-yl)-1H-pyrazolo[3,4-b]pyridin-5-yl)pyridin-3-amine] | – | – |

Continued, molecule first:

| SMILES | pEC50 [2] | EC50 ([1]; concentration required to induce 50% levels of chondrogenesis vs TGF-β3, read-out: Conc (nM) of 50% TGF-β3 activity) [nM] | Emax [1] [%] | inhibition at 10 µM [2] [%] |
| --- | --- | --- | --- | --- |
| O=C(CC1CCNCC1)Nc1cncc(-c2cnc3[nH]nc(-c4cc5c(-c6ccncc6)ccnc5[nH]4)c3c2)c1 [Compound 577] | < 5.00 | – | 27 | 0 |
| c1cncc(-c2ccnc3[nH]c(-c4n[nH]c5ncc(-c6cncc(CN7CCCCC7)c6)cc45)cc23)c1 [Compound 99, 5-(5-(Piperidin-1-ylmethyl)pyridin-3-yl)-3-(4-(pyridin-3-yl)-1H-pyrrolo[2,3-b]pyridin-2-yl)-1H-pyrazolo[3,4-b]pyridine] | < 5.00 | – | 44 | 37 |
| CN1CCN(c2ccnc3[nH]c(-c4n[nH]c5ncc(-c6cn[nH]c6)cc45)cc23)CC1 [Compound 635, 3-(4-(4-Methylpiperazin-1-yl)-1H-pyrrolo[2,3-b]pyridin-2-yl)-5-(1H-pyrazol-4-yl)-1H-pyrazolo[3,4-b]pyridine] | < 5.00 | – | 20 | 21.4 |
| Fc1ccc(-c2ccnc3[nH]c(-c4n[nH]c5ncc(-c6cncc(CN7CCCCC7)c6)cc45)cc23)cc1 [Compound 43, 3-(4-(4-Fluorophenyl)-1H-pyrrolo[2,3-b]pyridin-2-yl)-5-(5-(piperidin-1-ylmethyl)pyridin-3-yl)-1H-pyrazolo[3,4-b]pyridine] | < 5.00 | – | – | 36.7 |
| Fc1cccc(-c2ccnc3[nH]c(-c4n[nH]c5ncc(-c6ccccn6)cc45)cc23)c1 [Compound 28, 3-(4-(3-Fluorophenyl)-1H-pyrrolo[2,3-b]pyridin-2-yl)-5-(pyridin-2-yl)-1H-pyrazolo[3,4-b]pyridine] | < 5.00 | – | – | 49.5 |
| Fc1cccc(-c2ccnc3[nH]c(-c4n[nH]c5ncc(-c6cncc(OCc7ccccc7)c6)cc45)cc23)c1 [Compound 518, 5-(5-(Benzyloxy)pyridin-3-yl)-3-(4-(3-fluorophenyl)-1H-pyrrolo[2,3-b]pyridin-2-yl)-1H-pyrazolo[3,4-b]pyridine] | < 5.00 | – | – | 6.3 |
| Fc1ccc(-c2ccnc3[nH]c(-c4n[nH]c5ncc(-c6cncnc6)cc45)cc23)cc1 [Compound 55, 3-(4-(4-Fluorophenyl)-1H-pyrrolo[2,3-b]pyridin-2-yl)-5-(pyrimidin-5-yl)-1H-pyrazolo[3,4-b]pyridine] | < 5.00 | – | – | 32.2 |
| Fc1cccc(-c2ccnc3[nH]c(-c4n[nH]c5ncc(-c6ccncc6)cc45)cc23)c1 [Compound 18, 3-(4-(3-Fluorophenyl)-1H-pyrrolo[2,3-b]pyridin-2-yl)-5-(pyridin-4-yl)-1H-pyrazolo[3,4-b]pyridine] | < 5.00 | – | – | 37.2 |
| CCC(=O)Nc1cncc(-c2cnc3[nH]nc(-c4cc5c(-c6cccc(F)c6)ccnc5[nH]4)c3c2)c1 [Compound 1, N-(5-(3-(4-(3-Fluorophenyl)-1H-pyrrolo[2,3-b]pyridin-2-yl)-1H-pyrazolo [3,4-b]pyridin-5-yl)pyridin-3-yl)propionamide] | < 5.00 | – | – | 23.8 |
| O=C(Nc1cncc(-c2cnc3[nH]nc(-c4cc5c(-c6ccncc6)ccnc5[nH]4)c3c2)c1)C1CCCCC1 [Compound 135, N-(5-(3-(4-(Pyridin-4-yl)-1H-pyrrolo[2,3-b]pyridin-2-yl)-1H-pyrazolo[3,4-b]pyridin-5-yl)pyridin-3-yl)cyclohexanecarboxamide] | < 5.00 | – | – | 37.7 |
| c1ccc(-c2cnc3[nH]nc(-c4cc5c(-c6ccncc6)ccnc5[nH]4)c3c2)nc1 [Compound 140, 5-(Pyridin-2-yl)-3-(4-(pyridin-4-yl)-1H-pyrrolo[2,3-b]pyridin-2-yl)-1H-pyrazolo[3,4-b]pyridine] | < 5.00 | – | – | 24.5 |
| O=C(Nc1cncc(-c2cnc3[nH]nc(-c4cc5c(-c6cccnc6)ccnc5[nH]4)c3c2)c1)C1CC1 [Compound 104, N-(5-(3-(4-(Pyridin-3-yl)-1H-pyrrolo[2,3-b]pyridin-2-yl)-1H-pyrazolo[3,4-b]pyridin-5-yl)pyridin-3-yl)cyclopropanecarboxamide] | < 5.00 | – | – | 35.8 |
| c1cncc(-c2cnc3[nH]nc(-c4cc5c(-c6cccnc6)ccnc5[nH]4)c3c2)c1 [Compound 88, 5-(Pyridin-3-yl)-3-(4-(pyridin-3-yl)-1H-pyrrolo[2,3-b]pyridin-2-yl)-1H-pyrazolo[3,4-b]pyridine] | < 5.00 | – | – | 22.6 |
